This note sets out measurements from publication PMC4406241 (Current eye research, 2009).

What is called IC50 is the concentration at which inhibition is half-maximal.

In the assay the target is T1, Breast Cancer Resistance Protein (BCRP) (Homo sapiens, UniProt Q9UNQ0).
T1 sequence (Q9UNQ0 1-655): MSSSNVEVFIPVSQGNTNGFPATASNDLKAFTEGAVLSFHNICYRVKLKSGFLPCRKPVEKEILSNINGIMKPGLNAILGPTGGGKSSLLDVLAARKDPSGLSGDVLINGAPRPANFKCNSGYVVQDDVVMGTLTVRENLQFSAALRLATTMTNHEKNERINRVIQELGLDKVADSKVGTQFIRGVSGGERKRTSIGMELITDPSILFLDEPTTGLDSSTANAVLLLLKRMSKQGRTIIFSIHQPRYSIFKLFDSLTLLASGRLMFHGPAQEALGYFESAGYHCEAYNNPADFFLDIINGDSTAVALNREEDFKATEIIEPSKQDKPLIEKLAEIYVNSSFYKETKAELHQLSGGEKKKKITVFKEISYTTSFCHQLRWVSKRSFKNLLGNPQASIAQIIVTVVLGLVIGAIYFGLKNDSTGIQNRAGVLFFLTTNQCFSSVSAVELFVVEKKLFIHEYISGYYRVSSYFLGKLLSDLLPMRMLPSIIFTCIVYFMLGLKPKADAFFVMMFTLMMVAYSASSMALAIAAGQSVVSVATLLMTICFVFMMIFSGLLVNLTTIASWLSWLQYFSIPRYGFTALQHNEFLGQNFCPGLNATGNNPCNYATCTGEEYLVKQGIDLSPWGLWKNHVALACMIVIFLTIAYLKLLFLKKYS
The experiment in a line: inhibition of [3H]-MTX efflux from MDCKII-BCRP transfected cells and SV40-HCEC. It counts as cell-based.

`COc1ccc2c3c([nH]c2c1)[C@H](C=C(C)C)N1C(=O)[C@@H]2CCCN2C(=O)[C@@H]1C3` [FTC, Fumetremorgin C] showed an IC50 of roughly 10 µM.
